Experimental data from PubChem BioAssay AID256 (DTP/NCI, 2004).
Inconclusive results and toxic doses are left out. How the source made its calls: active means survival T/C of 150% or more; inactive means T/C below 125% in these data.

Test system: CD2F1 mice, L1210 leukemia ip, survival T/C
Experiment: NCI In Vivo Anticancer Drug Screen. Data for tumor model L1210 Leukemia (intraperitoneal) in CD2F1 (CDF1) mice
Conditions: higher = longer survival
In short: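 Transplantable tumor in mice; compound-treated vs vehicle-treated groups. Read-out = treated/control ratio of the measured endpoint.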

[1] = endpoint: mean survival time, dose: 50.0 mg/kg/injection, schedule: Q01DX009 (ip), vehicle: saline
[2] = endpoint: mean survival time, dose: 100.0 mg/kg/injection, schedule: Q01DX009 (ip), vehicle: saline
[3] = endpoint: mean survival time, dose: 200.0 mg/kg/injection, schedule: Q01DX009 (ip), vehicle: saline
[4] = endpoint: mean survival time, dose: 100.0 mg/kg/injection, schedule: Q04DX003 (ip), vehicle: saline
[5] = endpoint: mean survival time, dose: 200.0 mg/kg/injection, schedule: Q04DX003 (ip), vehicle: saline
[6] = endpoint: mean survival time, dose: 100.0 mg/kg/injection, schedule: Q01DX001 (ip), vehicle: saline with Tween-80
[7] = endpoint: mean survival time, dose: 200.0 mg/kg/injection, schedule: Q01DX001 (ip), vehicle: saline with Tween-80
[8] = endpoint: mean survival time, dose: 400.0 mg/kg/injection, schedule: Q01DX001 (ip), vehicle: saline with Tween-80
[9] = endpoint: mean survival time, dose: 100.0 mg/kg/injection, schedule: Q01DX009 (ip), vehicle: saline with Tween-80
[10] = endpoint: mean survival time, dose: 100.0 mg/kg/injection, schedule: Q04DX003 (ip), vehicle: saline with Tween-80
[11] = endpoint: mean survival time, dose: 200.0 mg/kg/injection, schedule: Q01DX009 (ip), vehicle: saline with Tween-80
[12] = endpoint: mean survival time, dose: 200.0 mg/kg/injection, schedule: Q04DX003 (ip), vehicle: saline with Tween-80
[13] = endpoint: mean survival time, dose: 400.0 mg/kg/injection, schedule: Q01DX009 (ip), vehicle: saline with Tween-80
[14] = endpoint: mean survival time, dose: 400.0 mg/kg/injection, schedule: Q04DX003 (ip), vehicle: saline with Tween-80
[15] = endpoint: mean survival time, dose: 100.0 mg/kg/injection, schedule: Q04DX002 (ip), vehicle: saline with Tween-80
[16] = endpoint: mean survival time, dose: 200.0 mg/kg/injection, schedule: Q04DX002 (ip), vehicle: saline with Tween-80
[17] = endpoint: mean survival time, dose: 400.0 mg/kg/injection, schedule: Q04DX002 (ip), vehicle: saline with Tween-80
[18] = endpoint: mean survival time, dose: 50.0 mg/kg/injection, schedule: Q01DX009 (ip), vehicle: saline with Tween-80

Measured: T/C

COC(=O)CC(NC(=O)C(CSC(c1ccccc1)(c1ccccc1)c1ccccc1)NC(c1ccccc1)(c1ccccc1)c1ccccc1)C(=O)OC (stereo unspecified)
inactive: [1] 95 % of control | [2] 92 % of control | [3] 89 % of control | endpoint: mean survival time, dose: 400.0 mg/kg/injection, schedule: Q01DX009 (ip), vehicle: saline 91 % of control

CCCCN1CCNCC1
inactive: [4] 93 % of control | [5] 94 % of control

Cc1cc(=O)oc2cc(O)ccc12
inactive: [6] 94 % of control | [7] 98 % of control | [8] 87 % of control

O=C1/C(=C\c2ccc(Cl)cc2)SC(=S)N1/N=C/c1ccc(Cl)cc1
inactive: endpoint: mean survival time, dose: 25.0 mg/kg/injection, schedule: Q01DX001 (ip), vehicle: saline with Tween-80 97 % of control | endpoint: mean survival time, dose: 50.0 mg/kg/injection, schedule: Q01DX001 (ip), vehicle: saline with Tween-80 94 % of control | [6] 90 % of control | [7] 87 % of control

CCCCC(=O)c1cc(O)ccc1O
inactive: endpoint: mean survival time, dose: 100.0 mg/kg/injection, schedule: Q01DX001 (ip), vehicle: saline 107 % of control | endpoint: mean survival time, dose: 200.0 mg/kg/injection, schedule: Q01DX001 (ip), vehicle: saline 98 % of control | endpoint: mean survival time, dose: 400.0 mg/kg/injection, schedule: Q01DX001 (ip), vehicle: saline 92 % of control

CSc1nc(NC2OC(CO)C(O)C(O)C2O)c(I)c(=O)[nH]1 (stereo unspecified)
inactive: endpoint: median survival time, dose: 12.5 mg/kg/injection, schedule: Q01DX005 (ip), vehicle: saline with Tween-80 100 % of control | endpoint: median survival time, dose: 25.0 mg/kg/injection, schedule: Q01DX005 (ip), vehicle: saline with Tween-80 98 % of control | endpoint: median survival time, dose: 50.0 mg/kg/injection, schedule: Q01DX005 (ip), vehicle: saline with Tween-80 100 % of control | endpoint: median survival time, dose: 100.0 mg/kg/injection, schedule: Q01DX005 (ip), vehicle: saline with Tween-80 100 % of control | endpoint: median survival time, dose: 200.0 mg/kg/injection, schedule: Q01DX005 (ip), vehicle: saline with Tween-80 102 % of control

COC(=O)c1cc([N+](=O)[O-])c(Sc2ncnc3nc[nH]c23)c([N+](=O)[O-])c1
inactive: endpoint: mean survival time, dose: 11.0 mg/kg/injection, schedule: Q01DX005 (ip), vehicle: other 103 % of control | endpoint: mean survival time, dose: 12.5 mg/kg/injection, schedule: Q01DX005 (ip), vehicle: other 110 % of control | endpoint: mean survival time, dose: 16.5 mg/kg/injection, schedule: Q01DX005 (ip), vehicle: other 124 % of control | endpoint: mean survival time, dose: 25.0 mg/kg/injection, schedule: Q01DX005 (ip), vehicle: other 95 % of control | endpoint: mean survival time, dose: 50.0 mg/kg/injection, schedule: Q01DX005 (ip), vehicle: other 115 % of control

CN(C)C(=O)c1cccc(COc2ccc(N3C(N)=NC(N)=NC3(C)C)cc2Cl)c1
inactive: endpoint: mean survival time, dose: 0.2 mg/kg/injection, schedule: Q01DX009 (ip), vehicle: saline 100 % of control | endpoint: mean survival time, dose: 0.4 mg/kg/injection, schedule: Q01DX009 (ip), vehicle: saline 98 % of control | endpoint: mean survival time, dose: 1.56 mg/kg/injection, schedule: Q01DX009 (ip), vehicle: saline 98 % of control | endpoint: mean survival time, dose: 3.13 mg/kg/injection, schedule: Q01DX009 (ip), vehicle: saline 100 % of control | endpoint: mean survival time, dose: 6.25 mg/kg/injection, schedule: Q01DX009 (ip), vehicle: saline 98 % of control | endpoint: mean survival time, dose: 12.5 mg/kg/injection, schedule: Q01DX009 (ip), vehicle: saline 98 % of control | endpoint: mean survival time, dose: 65.0 mg/kg/injection, schedule: Q01DX009 (ip), vehicle: saline 97 % of control

Nc1c([N+](=O)[O-])ccc2ccccc12
inactive: [9] 95 % of control | [10] 93 % of control | [11] 93 % of control | [12] 93 % of control | [13] 92 % of control | [14] 92 % of control

NC(=O)Cn1cnnn1
inactive: [6] 102 % of control | [9] 98 % of control | [10] 101 % of control | [7] 100 % of control | [11] 101 % of control | [12] 95 % of control | [8] 96 % of control | [13] 98 % of control | [14] 95 % of control

Nc1nc2c(ncn2-c2cccc(NC(=O)CBr)c2)c(=O)[nH]1
inactive: endpoint: mean survival time, dose: 37.5 mg/kg/injection, schedule: Q01DX001 (ip), vehicle: saline with Tween-80 95 % of control | endpoint: mean survival time, dose: 75.0 mg/kg/injection, schedule: Q01DX001 (ip), vehicle: saline with Tween-80 100 % of control | endpoint: mean survival time, dose: 150.0 mg/kg/injection, schedule: Q01DX001 (ip), vehicle: saline with Tween-80 92 % of control

COc1cc(C(=O)NCCCCCC(=O)O)cc(OC)c1OC
inactive: [15] 91 % of control | [16] 95 % of control | [17] 88 % of control

OCCOc1ccc(Cl)cc1
inactive: [9] 104 % of control | [10] 96 % of control | [11] 100 % of control | [12] 96 % of control | [14] 103 % of control

CN/N=C/c1ccc(O)c(OC)c1
inactive: [9] 91 % of control | [11] 87 % of control

CC(C)(CCl)C(=O)O
inactive: [18] 110 % of control | [9] 104 % of control | [10] 100 % of control | [11] 93 % of control | [12] 104 % of control

NC(=O)c1c(F)cccc1Cl
inactive: [9] 102 % of control | [10] 101 % of control | [11] 105 % of control | [12] 98 % of control | [13] 102 % of control | [14] 106 % of control

CC(=O)CC(=O)N(C)Cc1ccccc1
inactive: [6] 101 % of control | [7] 104 % of control | [8] 107 % of control

Cc1cc(=O)[nH]c2c1c(C#N)cn2C1CCCCC1
inactive: [4] 101 % of control | [5] 89 % of control | endpoint: mean survival time, dose: 400.0 mg/kg/injection, schedule: Q04DX003 (ip), vehicle: saline 93 % of control

COc1ccc(CCN)cc1OC
inactive: [1] 94 % of control | [2] 94 % of control | [10] 97 % of control | [3] 97 % of control | [12] 93 % of control

Cc1ccc(NC(=O)COc2ccc(Cl)cc2Cl)cc1Cl
inactive: [10] 93 % of control | [12] 98 % of control | [14] 88 % of control

CC(C)(C)c1ccc(O)c(C(=O)N/N=C/c2ccccc2O)c1
inactive: [6] 97 % of control | [7] 104 % of control | [8] 93 % of control

CC(=O)OC(CC(=O)CC(O)(C(F)(F)F)C(F)(F)F)(C(F)(F)F)C(F)(F)F
inactive: endpoint: mean survival time, dose: 6.25 mg/kg/injection, schedule: Q04DX003 (ip), vehicle: saline 95 % of control | endpoint: mean survival time, dose: 12.5 mg/kg/injection, schedule: Q04DX003 (ip), vehicle: saline 98 % of control | endpoint: mean survival time, dose: 25.0 mg/kg/injection, schedule: Q04DX003 (ip), vehicle: saline 96 % of control

CCCCCCCCCCOc1ccc(Cl)cc1Cl
inactive: [15] 101 % of control | [16] 101 % of control | [17] 90 % of control

O=c1[nH]ncc2c(C3OC(CO)C(O)C3O)cnn12 (stereo unspecified)
inactive: endpoint: median survival time, dose: 4.75 mg/kg/injection, schedule: Q01DX005 (ip), vehicle: distilled water + Tween-80 109 % of control | endpoint: median survival time, dose: 9.5 mg/kg/injection, schedule: Q01DX005 (ip), vehicle: distilled water + Tween-80 100 % of control | endpoint: median survival time, dose: 19.0 mg/kg/injection, schedule: Q01DX005 (ip), vehicle: distilled water + Tween-80 106 % of control | endpoint: median survival time, dose: 38.0 mg/kg/injection, schedule: Q01DX005 (ip), vehicle: distilled water + Tween-80 102 % of control | endpoint: median survival time, dose: 76.0 mg/kg/injection, schedule: Q01DX005 (ip), vehicle: distilled water + Tween-80 98 % of control

Cc1c(C=NC(=O)c2ccccc2)c2ccccc2n1C
inactive: [15] 100 % of control | [16] 108 % of control | [17] 96 % of control

CCOC(=O)N/N=C/C(Br)=C\c1ccccc1
inactive: endpoint: mean survival time, dose: 12.5 mg/kg/injection, schedule: Q01DX009 (ip), vehicle: saline with Tween-80 97 % of control | endpoint: mean survival time, dose: 25.0 mg/kg/injection, schedule: Q01DX009 (ip), vehicle: saline with Tween-80 92 % of control | [18] 92 % of control

CC(C)(C)CC(C)(C)c1ccc(OCCOc2ccc(C(=O)Nc3ccc([N+](=O)[O-])cc3)cc2)cc1
inactive: endpoint: mean survival time, dose: 100.0 mg/kg/injection, schedule: Q01DX009 (ip), vehicle: Klucel (hydroxypropylcellulose) (HPC) 87 % of control | endpoint: mean survival time, dose: 100.0 mg/kg/injection, schedule: Q04DX003 (ip), vehicle: Klucel (hydroxypropylcellulose) (HPC) 96 % of control | endpoint: mean survival time, dose: 200.0 mg/kg/injection, schedule: Q01DX009 (ip), vehicle: Klucel (hydroxypropylcellulose) (HPC) 105 % of control | endpoint: mean survival time, dose: 200.0 mg/kg/injection, schedule: Q04DX003 (ip), vehicle: Klucel (hydroxypropylcellulose) (HPC) 98 % of control | endpoint: mean survival time, dose: 400.0 mg/kg/injection, schedule: Q04DX003 (ip), vehicle: Klucel (hydroxypropylcellulose) (HPC) 94 % of control
